Earlier results in paper PMC5368910 (BMC Pharmacology & Toxicology, 2017).

Tests used:
[1] = test system: Clostridium difficile-associated diarrhea (CDAD); conditions: stated for vancomycin and metronidazole treatments together; cited from earlier work
Description: Despite having a clinical response rate of ~73 to 85%, vancomycin and metronidazole treatments are associated with recurrent CDAD in up to 45% of patients. Aggressive vancomycin and metronidazole treatment is also associated with disruption of the intestinal microbiota and can promote colonization by vancomycin-resistant enterococci, highlighting the need for novel treatment options. An ideal agent for the treatment of CDAD should be associated with low levels of systemic absorption, resulting in high concentrations of the drug in the colon, combined with a narrow spect ...

C. difficile = test system: C. difficile; set-up: method as in PMID 22183166, PMID 22391542; conditions: in vitro, C. difficile isolates; cited from earlier work

Row | SMILES | recurrent CDAD, share of patients [1] | minimum inhibitory concentration at which 90% of the isolates were inhibited [MIC90] (C. difficile) [µg/mL]
1 | Cc1ncc([N+](=O)[O-])n1CCO [metronidazole] | up to 45% | 
2 | CN[C@H](CC(C)C)C(=O)N[C@H]1C(=O)N[C@@H](CC(N)=O)C(=O)N[C@H]2C(=O)N[C@H]3C(=O)N[C@H](C(=O)N[C@H](C(=O)O)c4cc(O)cc(O)c4-c4cc3ccc4O)[C@H](O)c3ccc(c(Cl)c3)Oc3cc2cc(c3O[C@@H]2O[C@H](CO)[C@@H](O)[C@H](O)[C@H]2O[C@H]2C[C@](C)(N)[C@H](O)[C@H](C)O2)Oc2ccc(cc2Cl)[C@H]1O [vancomycin, reference compound] | up to 45% | 2.0
